Among the data in patent publication US9481654B2, “Compositions and methods for inhibition of the JAK pathway” (Rigel Pharmaceuticals, Inc., priority 2006, dated 2016) are IC50 values, retold here.

Experiment [1] concerns primary human T-cells (IL-2 induced proliferation, JAK-1/JAK-3, Stat-5). The experiment can be described thus: Primary Human T-Cell Proliferation Assay Stimulated with IL-2 (CellTiter-Glo). It is filed as cell-based. To be noted: Table III Example 4. The essentials: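 Pre-activated peripheral-blood T-cells (TCR/CD28 stimulated, IL-2-maintained) were IL-2-depleted, then plated in Yssel's medium with 80 U/mL IL-2 in the cell suspension and compound in duplicate. Proliferation ran 72 h at 37 °C; viable cells quantified by CellTiter-Glo ATP luminescence, with IL-2-omitted wells as unstimulated control.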

For experiment [2], the system named is IFNγ induced ICAM-1 (CD54) up-regulation in U937 human monocytic cells (JAK/Stat pathway). In words: U937 IFNγ ICAM1 FACS Assay. It is filed as cell-based. The note with it: Table III Example 6, 10 ng/mL IFNγ, 18-24 hours. The essentials:
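U937 cells (100,000 per well) were pre-incubated 30 min at 37 °C with serially 3-fold diluted compound, then stimulated with IFNγ for 18–24 h. Surface ICAM-1 was measured by flow cytometry as the geometric mean of ICAM-APC on gated live cells. EC50 values were calculated from dose curves, with % live cells also recorded.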

Regarding `Cc1cnc(Nc2cccc(S(N)(=O)=O)c2)nc1Nc1cccc(CN(C)S(=O)(=O)C2CC2)c1` [Compound I-120, N2-(3-aminosulfonyl)phenyl-N4-[3-(N-cyclopropylsulfonyl-N-methyl)aminomethyl]phenyl-5-methyl-2,4-pyrimidinediamine], the IC50 in experiment [1] is 47.3 nM; in experiment [2], 98.4 nM.
Taken in the same sequence, the figures for `CCS(=O)(=O)NCc1cccc(Nc2nc(Nc3cccc(S(N)(=O)=O)c3)ncc2F)c1` [Compound I-12, N2-(3-aminosulfonyl)phenyl-N4-(3-ethylsulfonylaminomethyl)phenyl-5-fluoro-2,4-pyrimidinediamine] were 158 nM and 1580 nM.
Taken in the same sequence, the figures for `Cc1ccc(Nc2ncc(C)c(Nc3ccc(CN(C)S(=O)(=O)C4CC4)cc3)n2)cc1S(N)(=O)=O` [Compound I-126, N2-(3-aminosulfonyl-4-methyl)phenyl-N4-[4-(N-cyclopropylsulfonyl-N-methyl)aminomethyl]phenyl-5-methyl-2,4-pyrimidinediamine] were 74.2 nM and 224 nM.
Taken in the same sequence, the figures for `Cc1ccc(Nc2ncc(C)c(Nc3ccc(CNS(=O)(=O)C4CC4)cc3)n2)cc1S(=O)(=O)Nc1ccccc1` [Compound I-202, N4-(4-cyclopropylsulfonylaminomethyl)phenyl-5-methyl-N2-(4-methyl-3-phenylaminosulfonyl)phenyl-2,4-pyrimidinediamine] were 184 nM and 482 nM.
On to `Cc1cnc(Nc2ccc(S(N)(=O)=O)cc2)nc1Nc1ccc2c(c1)CCN(S(=O)(=O)C1CC1)C2` [II-1, N2-(4-aminosulfonyl)phenyl-N4-[(N-cyclopropylsulfonyl)-1,2,3,4-tetrahydroisoquinolin-6-yl]-5-methyl-2,4-pyrimidinediamine], for which the IC50 in experiment [1] worked out at 108 nM; in experiment [2] it was 229 nM.
Taken in the same sequence, the figures for `COCCCNS(=O)(=O)c1cccc(Nc2ncc(C)c(Nc3ccc(CNS(=O)(=O)C4CC4)cc3)n2)c1` [Compound I-182, N4-(4-cyclopropylsulfonylaminomethyl)phenyl-N2-[3-(3-methoxypropyl)aminosulfonyl]phenyl-5-methyl-2,4-pyrimidinediamine] were 55.1 nM and 103 nM.
Taken in the same sequence, the figures for `Cc1cnc(Nc2cccc(S(N)(=O)=O)c2)nc1Nc1ccc(CNS(=O)(=O)C(C)C)cc1` [Compound I-118, N2-(3-aminosulfonyl)phenyl-N4-(4-isopropylsulfonylaminomethyl)phenyl-5-methyl-2,4-pyrimidinediamine] were 15.8 nM and 218 nM.
Taken in the same sequence, the figures for `Cc1ccc(Nc2ncc(F)c(Nc3ccc(CNS(=O)(=O)c4cccs4)cc3)n2)cc1S(N)(=O)=O` [Compound I-37, N2-(3-aminosulfonyl-4-methyl)phenyl-5-fluoro-N4-[4-(thiophen-2-yl)sulfonylaminomethyl]phenyl-2,4-pyrimidinediamine] were 152 nM and 375 nM.
For the compound `COCCCNS(=O)(=O)c1ccc(Nc2ncc(C)c(Nc3ccc(CNS(=O)(=O)C4CC4)cc3)n2)cc1` [Compound I-181, N4-(4-cyclopropylsulfonylaminomethyl)phenyl-N2-[4-(3-methoxypropyl)aminosulfonyl]phenyl-5-methyl-2,4-pyrimidinediamine], the IC50 in experiment [1] was determined as 121 nM; in experiment [2] it was 243 nM.
Taken in the same sequence, the figures for `CCS(=O)(=O)N[C@@H](C)c1ccc(Nc2nc(Nc3cccc(S(N)(=O)=O)c3)ncc2F)cc1` [Compound I-27, N2-(3-aminosulfonyl)phenyl-N4-[4-(1S-ethylsulfonylamino)ethyl]phenyl-5-fluoro-2,4-pyrimidinediamine] were 144 nM and 1240 nM.
In the case of `C#CCNS(=O)(=O)Cc1ccc(Nc2nc(Nc3ccc(C)c(S(N)(=O)=O)c3)ncc2F)cc1` [Compound I-5, N2-(3-Aminosulfonyl-4-methylphenyl)-5-fluoro-N4-[4-(prop-2-ynylaminosulfonylmethyl)phenyl]-2,4-pyrimidinediamine], the IC50 in experiment [1] (Homo sapiens, T-cell) is 120 nM; in experiment [2] (Homo sapiens, U-937) it was 710 nM.
In the case of `Cc1cnc(Nc2cccc(S(N)(=O)=O)c2)nc1Nc1ccc2c(c1)CN(S(=O)(=O)C1CC1)C2` [II-8, N2-(3-Aminosulfonyl-phenyl)-N4-[(2-cyclopropylsulfonyl)-isoindolin-5-yl]-5-methyl-2,4-pyrimidinediamine], the IC50 in experiment [1] was 147 nM; in experiment [2] it was 775 nM.
Taken in the same sequence, the figures for `CCCNS(=O)(=O)c1cccc(Nc2ncc(C)c(Nc3ccc(CNS(=O)(=O)C4CC4)cc3)n2)c1` [Compound I-178, N4-(4-cyclopropylsulfonylaminomethyl)phenyl-5-methyl-N2-(3-propylaminosulfonyl)phenyl-2,4-pyrimidinediamine] were 122 nM and 57.7 nM.
Taken in the same sequence, the figures for `Cc1ccc(Nc2ncc(C)c(Nc3ccc(CNS(=O)(=O)C4CC4)cc3)n2)cc1S(=O)(=O)NCC1CC1` [Compound I-192, N2-(3-cyclopropylmethylaminosulfonyl-4-methyl)phenyl-N4-(4-cyclopropylsulfonylaminomethyl)phenyl-5-methyl-2,4-pyrimidinediamine] were 43.4 nM and 260 nM.
Taken in the same sequence, the figures for `CCS(=O)(=O)NCCc1ccc(Nc2nc(Nc3ccc(C)c(S(N)(=O)=O)c3)ncc2C)cc1` [Compound I-40, N2-(3-aminosulfonyl-4-methyl)phenyl-N4-[4-(2-ethylsulfonylamino)ethyl]phenyl-5-methyl-2,4-pyrimidinediamine] were 92.4 nM and 341 nM.
With `CCCNS(=O)(=O)c1cc(Nc2ncc(C)c(Nc3ccc(CNS(=O)(=O)C4CC4)cc3)n2)ccc1C` [Compound I-187, N4-(4-cyclopropylsulfonylaminomethyl)phenyl-5-methyl-N2-(4-methyl-3-propylaminosulfonyl)phenyl-2,4-pyrimidinediamine], the IC50 in experiment [1] turned out to be 101 nM; in experiment [2], 174 nM.
Taken in the same sequence, the figures for `Cc1cnc(Nc2cccc(S(=O)(=O)NCc3ccccc3)c2)nc1Nc1ccc(CNS(=O)(=O)C2CC2)cc1` [Compound I-154, N2-(3-benzylaminosulfonyl)phenyl-N4-(4-cyclopropylsulfonylaminomethyl)phenyl-5-methyl-2,4-pyrimidinediamine] were 61.9 nM and 184 nM.
Taken in the same sequence, the figures for `Cc1ccc(Nc2ncc(Cl)c(Nc3ccc(CNS(=O)(=O)C4CC4)cc3)n2)cc1S(N)(=O)=O` [Compound I-113, N2-(3-aminosulfonyl-4-methyl)phenyl-5-chloro-N4-(4-cyclopropylsulfonylaminomethyl)phenyl-2,4-pyrimidinediamine] were 17 nM and 47.1 nM.
`Cc1cnc(Nc2cccc(S(N)(=O)=O)c2)nc1Nc1ccc(CCNS(=O)(=O)C2CC2)cc1` [Compound I-54, N2-(3-aminosulfonyl)phenyl-N4-[4-(2-cyclopropylsulfonylamino)ethyl]phenyl-5-methyl-2,4-pyrimidinediamine]: the half-maximal inhibitory concentration (IC50) came to 47 nM in experiment [1] and 389 nM in experiment [2].
Taken in the same sequence, the figures for `CCNS(=O)(=O)c1cc(Nc2ncc(C)c(Nc3ccc(CNS(=O)(=O)C4CC4)cc3)n2)ccc1C` [Compound I-186, N4-(4-cyclopropylsulfonylaminomethyl)phenyl-N2-(3-ethylaminosulfonyl-4-methyl)phenyl-5-methyl-2,4-pyrimidinediamine] were 40 nM and 73 nM.
Taken in the same sequence, the figures for `Cc1ccc(Nc2ncc(C)c(Nc3ccc(CNS(=O)(=O)C(C)C)cc3)n2)cc1S(N)(=O)=O` [Compound I-117, N2-(3-aminosulfonyl-4-methyl)phenyl-N4-(4-isopropylsulfonylaminomethyl)phenyl-5-methyl-2,4-pyrimidinediamine] were 17.9 nM and 60.1 nM.
